Experimental data from patent publication US12582617B2, “Methods for treating cancer” (RADIUS PHARMACEUTICALS, INC., priority 2015, dated 2026).
Where a name gives a salt, the structure may show the parent alone.

How the values were obtained:
[1] = Femur microarchitecture in ovariectomized rats (micro-CT); type: in vivo, Sprague-Dawley rats; conditions: OVX rats
Procedure: (§1) As a model of postmenopausal bone loss, ovariectomy was performed on anesthetized adult female Sprague-Dawley rats, with sham surgery as a control. […] Animals in the sham surgery group were vehicle treated. All animals were euthanized by carbon dioxide inhalation 24 hours after the final dose. Bone mineral density was assessed at baseline and again after 4 weeks of treatment using PIXImus dual emission x-ray absorptiometry.
At necropsy, the left femur of each animal was removed, dissected free of soft tissue and stored in 70% ethanol before analysis. A detailed qualitative and quantitative 3-D evaluation was performed using a micro-CT40 system (Scanco Systems, Wayne, PA). For each specimen, 250 image slices of the distal femur metaphysis were acquired. Morphometric parameters were determined using a direct 3-D approach in pre-selected analysis regions. Parameters determined in the trabecular bone included bone volume density, bone surface density, trabecular number, trabecular thickness, trabecular spacing, connectivity density, and apparent bone density.

[2] = Phase 1 dose escalation study: plasma pharmacokinetics; type: in vivo, human
Procedure: The subjects were treated with placebo or at least one dose p.o., q.d. after a light breakfast for 7 days at dose levels of 200 mg, 500 mg, 750 mg and 1000 mg, respectively.
A series of blood samples were taken during the study for the analysis of RAD1901 in plasma. Blood samples of 5 mL each were taken via an indwelling IV catheter or by direct venipuncture into tubes containing K3-EDTA as anticoagulant. Steady state was achieved by day 5 of treatment.

[3] = Bone mineral density in ovariectomized rats (dual emission x-ray absorptiometry); type: in vivo, Sprague-Dawley rats; conditions: OVX rats, E2 0.01 mg/kg
Procedure: as §1

[4] = test system: PR expression; experiment: PR expression in PDx-5 tumors; type: in vivo, athymic nude mice; conditions: RAD1901 60 and 120 mg/kg p.o., q.d.; fulvestrant 3 mg/dose
From the text: Tumors were harvested at the indicated time points after the last day of dosing (unless otherwise specified), homogenized in RIPA buffer with protease and phosphatase inhibitors using a Tissuelyser (Qiagen). Equal amounts of protein were separated by MW, transferred to nitrocellulose membranes and blotted with the following antibody as described in the Materials and methods section: progesterone receptor (PR, Cell Signaling Technologies; 3153).
Bands were quantified using 1D Quant software (GE), and PR IHC Allred scores obtained from PDx-5 models as described in Example I(A)(iii)(1) are shown in FIG. 19.

[5] = 4 weeks q.d., E2 0.01 mg/kg, RAD1901 3 mg/kg, mean
[6] = 4 weeks once daily, RAD1901 3 mg/kg, mean ± SD

SMILES: CCNCCc1ccc(CN(CC)c2cc(OC)ccc2[C@@H]2CCc3cc(O)ccc3C2)cc1 [RAD1901, (6R)-6-(2-(N-(4-(2-(ethylamino)ethyl)benzyl)-N-ethylamino)-4-methoxyphenyl)-5,6,7,8-tetrahydronaphthalen-2-ol dihydrochloride]
- BV/TV [1, 5]: 0.300%
- ConnD [1, 5]: 113 ± 1/mm^3
- TbN [1, 5]: 4.5 ± 1/mm
- TbSp [1, 5]: 0.218 mm
- TbTh [1, 5]: 0.088 mm
- ABD ([1]; 4 weeks q.d., E2 0.01 mg/kg, RAD1901 3 mg/kg, mean ± SD): 370 ± 66 mgHA/ccm
- trabecular architecture (in words) ([1]; micro-CT of the distal femur): significant preservation of trabecular architecture
- t1/2, Geo-Mean ([2]; 500 mg, Day 7, N = 11): 37.5 h
- t1/2, Geo-Mean ([2]; 750 mg, Day 7, N = 6): 38.4 h
- plasma exposure over the dose range tested (in words) ([2]; 200 to 1000 mg): increased more than dose proportionally
- Tmax ([2]; female, human, plasma, oral, 500 mg, Day 7, N = 11, read-out: tmax, Min, Max): 2 to 6.02 h
- steady state achieved by day of treatment ([2]; p.o., q.d.): ≤ 5 days
- Femur BMD (% change) [3, 6]: 0.4 ± 2.8 % change
- Lumbar Spine BMD (% change) [3, 6]: −1.1 ± 7.9 % change
- ovariectomy-induced bone loss (in words) ([3]; 4 weeks, RAD1901 0.1 to 3 mg/kg): dose-dependent and statistically significant suppression of ovariectomy-induced bone loss
- PR expression (in words) [4]: showed efficacy at dosages of both 60 mg/kg and 120 mg/kg
